What all share (type): cell-based, human
The test system of test [1] is hESC-derived Olig2 progenitors. Description: Olig2/Nkx2.2 co-expression in Olig2 progenitors (immunostaining). The following applies: for OLIG2+/NKX2.2+ population: gliogenic progenitors treated day 35 to 50 (purmorphamine 1 uM, cyclopamine 5 μM), examined day 50; for cells expressing Olig2 and/or Nkx2.2: treated day 24 to 35, examined day 35. From the text: (§1) Olig2-expressing progenitors usually appeared around day 24 (Li et al., supra). The culture was then switched to a glial differentiation medium (modified Bottenstein-Sato medium; see, Bottenstein J, et al., “The growth of cells in serum-free hormone-supplemented media,” Methods Enzymol. 58:94-109 (1979); and Bottenstein J, et al., “Selective survival of neurons from chick embryo sensory ganglionic dissociates utilizing serum-free supplemented medium,” Exp. Cell Res. 125:183-190 (1980)) consisting of DMEM, N1 supplement (Sigma; St. Louis, Mo.), T3 (Sigma); 60 ng/ml), biotin (Sigma; 100 ng/ml) and cAMP (Sigma; 1 uM). FGF2 (R&D; 10 ng/ml) and/or EGF (Sigma; 10 ng/ml) was added to examine their effect on motor neuron differentiation and progenitor proliferation.
(§2) Immuno-fluorescent staining on coverslip cultures and free-floating brain sections was described previously. Zhang et al. (2001), supra; Pankratz et al., supra. The following primary antibodies were used in the present study: anti-Olig2 (goat IgG, 1:500, sc-19969, Santa Cruz Biotechnology; Santa Cruz, Calif.), anti-βIII-tubulin (TuJ1, mlgG 1:5000, Sigma), anti-GFAP (mlgG 1:5000, Chemicon), anti-NG2 (mlgG 1:400, BD Pharmingen), anti-HB9 (mlgG 1:50, DSHB, Iowa City, Iowa), anti-PDGFRα (rat IgG 1:1000, gift from Dr. Stallcup WILLIAM STALLCUP, Burnham Institute for Medical Research, burnham.org/default.asp?contentID=203 on the World Wide Web) (Nishiyama A, et al., “Colocalization of NG2 proteoglycan and PDGF alpha-receptor on O2A progenitor cells in the developing rat brain,” J. Neurosci. Res. 43:299-314 (1996)), anti-O4 (1:50, mouse IgM, Chemincon MAB345), MBP (1:500, rabbit IgG, Chemicon), anti-human nuclei (1:200, mouse IgG, Chemicon). Specificity of the antibodies was first tested in embryonic brain and spinal cord tissues. Li et al., supra; and Pankratz et al., supra. Negative controls without primary and secondary antibody were performed in all experiments to monitor non-specific staining. The stained samples were visualized with a Nikon TE600 fluorescent scope equipped with a SPOT camera and software (Diagnostic Instruments; Sterling Heights, Mich.), as well as a Nikon C1 laser scanning confocal microscope.
(§3) For quantification of stained cell populations, optical fields were randomly selected with fixed ROI (region of interest) frame using cell counter plugin of ImageJ (Abramoff M, et al., “Image Processing with ImageJ,” Biophoton. Int. 11:36-42 (2004)) from independent coverslips of the same group. At least three coverslips were counted for every group. The experiments were repeated three times with different batches of cells. Statistical analyses were performed using ANOVA with R (R_Development_Core_Team, 2007).
Continued SHH signaling was required for maintaining gliogenic Olig2 progenitors. Gliogenic Olig2 progenitor cultures (day 35) were grown in the presence or absence of purmorphamine (1 uM), or the presence of cyclopamine (5 μM) for 2 weeks. […] Thus, SHH signaling was continuously needed to maintain the Olig2 progenitors, even though exogenous SHH is now not necessary.

For test [2], the system named is hESC-derived neuroepithelial cells. The test can be described thus: Olig2 induction from hESC-derived neuroepithelial cells (immunostaining). The conditions noted are these: for Olig2-expressing progenitors: treatment during Olig2 induction, SHH 100 ng/ml, purmorphamine 1 μM, day 35. How it is done:
hESCs (line H1 and H9; WiCell Research Institute; Madison, Wis.) were cultured on irradiated mouse embryonic fibroblasts (MEF) in a 6-well plate. […] Differentiated colonies were marked and removed physically with a pipette tip and the stem cell state was periodically monitored by expression of Oct4 and SSEA4.
hESCs were then differentiated to primitive neuroepithelial cells in an adherent colony culture for 10 days in a neural induction medium consisting of DMEM/F12, N2 supplement and non-essential amino acids, as detailed elsewhere. […] Chem. Soc. […] The neuroepithelial colonies were gently blown off the surface by a pipette and grown as floating clusters in suspension in the same medium.
(§4) Immuno-fluorescent staining on coverslip cultures and free-floating brain sections was described previously. […] Specificity of the antibodies was first tested in embryonic brain and spinal cord tissues. Li et al., supra; and Pankratz et al., supra. Negative controls without primary and secondary antibody were performed in all experiments to monitor non-specific staining. The stained samples were visualized with a Nikon TE600 fluorescent scope equipped with a SPOT camera and software (Diagnostic Instruments; Sterling Heights, Mich.), as well as a Nikon C1 laser scanning confocal microscope.
(§5) At least three coverslips were counted for every group. The experiments were repeated three times with different batches of cells.

For test [3], the system named is hESC-derived Olig2 progenitors. Description: Differentiation of Olig2 progenitors to OPCs in glial differentiation medium (marker immunostaining). The conditions noted are these: for OLIG2/PDGFRa double positive OPCs: day 100, treatment from Olig2 induction; for PDGFRα+ OPCs (in words): treated between days 24 and 35, later OPC differentiation; for timing of OPC differentiation (PDGFRα, NG2, Sox10): added to Olig2/Nkx2.2 progenitors in glial differentiation medium. As for the experimental part: Olig2-expressing progenitors usually appeared around day 24 (Li et al., supra). […] FGF2 (R&D; 10 ng/ml) and/or EGF (Sigma; 10 ng/ml) was added to examine their effect on motor neuron differentiation and progenitor proliferation.
From the 5th week of differentiation, FGF2 was replaced with a cocktail of cytokines consisting of PDGFAA, IGF1 and NT3 (all at 10 ng/ml). Du Z, et al., “Induced expression of Olig2 is sufficient for oligodendrocyte specification but not for motoneuron specification and astrocyte repression,” Mol. Cellular Neurosci. […] SHH or purmorphamine was removed around 10 weeks when PDGFRα+ OPCs appeared. The cultures were fed every other day and the progenitor clusters were broken into smaller pieces with polished glass Pasteur pipette every week.
as §4, §5

Test [4] has as its system hESC-derived Olig2 progenitors. Description: Motor neuron differentiation of Olig2 progenitors (HB9 and Olig2 immunostaining). The conditions noted are these: for cells expressing HB9: day 35, cultures with purmorphamine from day 24, with or without FGF2 10 ng/ml; for HB9 expression: day 24 to 35, combined with purmorphamine, FGF2 or EGF 10 ng/ml.
Text: as §1, §2, §3
FGF2 (10 ng/ml) was applied to the culture alongside purmorphamine at day 24 (following the appearance of Olig2, but before the differentiation of HB9+ motor neurons). […] Li et al., supra; and Li X & Zhang S, “In vitro differentiation of neural precursors from human embryonic stem cells,” Methods Mol. Biol. 331:169-177 (2006). […] Accordingly, a much larger population (55%) of Olig2 cells was present when FGF2 was present early on. RT-PCR analyses confirmed that Ngn2 and HB9 expression was repressed. Cultures with FGF2 alone (without the presence of SHH or purmorphamine) had few, if any, HB9+ motor neurons or Olig2-expressing progenitors (see FIGS. 4B, C).

Test [5] deals with hESC-derived Olig2 progenitors. The test can be described thus: Progenitor proliferation (Ki67 positive cells). The following applies: 10 ng/ml, day 24 to 35.
Text: as §1
To determine pro-proliferation effects of FGF2, we used another mitogen, EGF, as a control. […] Thus, FGF2 appeared to increase the Olig2+ cells by preventing the differentiation of Olig2 progenitors to motor neurons.

For test [6], the system named is hESC-derived Olig2 progenitors. Description: Differentiation of Olig2 progenitors to OPCs in glial differentiation medium (marker immunostaining). The following applies: progenitors cultured in the presence of FGF2 throughout; 13-14 weeks.
For test [7], the system named is hESC-derived Olig2 progenitors. The test can be described thus: FACS analysis of OLIG2+ population. The conditions noted are these: day 50, with FGF2 versus without FGF2. (Flow cytometry measures light scatter and fluorescence of single cells or particles in a stream.)
Test [8] concerns hESC-derived Olig2 progenitors. Description: RT-PCR gene expression in progenitor cultures.

This note sets out measurements from patent publication US8658424B2, “Myelinating oligodendrocyte precursor populations” (Wisconsin Alumni Research Foundation, priority 2007, dated 2014).

Entries after “also recorded” stand apart in the source; their conditions may differ.

`CC1=C2C[C@H]3[C@@H](CC=C4C[C@@H](O)CC[C@@]43C)[C@@H]2CC[C@]12O[C@@H]1C[C@H](C)CN[C@H]1[C@H]2C` [cyclopamine]: in test [1], the “OLIG2+/NKX2.2+ population” value is “not and few cells expressing Olig2 and/or Nkx2.2”; the “cells expressing Olig2 and/or Nkx2.2” value is on record as “near complete lack of cells expressing Olig2 and/or Nkx2.2”. The Olig2-expressing progenitors result in test [2] was “rarely; also recorded: blocked Olig2 transcription; also recorded: near absence of Olig2 cells”. Besides, in test [3], the “OLIG2/PDGFRa double positive OPCs” value is reported as “rarely; also recorded: lack of OPCs” and the “PDGFRα+ OPCs (in words)” value is listed as “few OPCs were present”.

With `c1ccc2c(Oc3nc(Nc4ccc(N5CCOCC5)cc4)c4ncn(C5CCCCC5)c4n3)cccc2c1` [purmorphamine], in test [1], the “OLIG2+/NKX2.2+ population” value is listed as “present” and the “cells expressing Olig2 and/or Nkx2.2” value is given as “co-express; also recorded: sustained Olig2 progenitor population”. For the same molecule, the “more Olig2/Nkx2.2 double positive cells” value in test [1] (purmorphamine 1 uM day 35 to 50, day 50, printed comparator: cultures with cyclopamine) was “about 40%”. In test [2], the “concentration that produced the highest proportion of Olig2 progenitors” value was determined as 1 µM and the Olig2-expressing progenitors result is given as “present”. Also, the “induction of Olig2 compared with SHH” value in test [2] (purmorphamine 1 uM replacing SHH, p<0.0001) is “earlier and more potent induction of Olig2”. For the same molecule, the “earlier induction of Olig2 expression than SHH” value in test [2] (purmorphamine versus SHH) lay within 4 to 5 days. Also, the “cells expressing HB9” value in test [4] is reported as 40-50%. In addition, in test [3], the “timing of OPC differentiation (PDGFRα, NG2, Sox10)” value is “did not speed up the differentiation of OPCs” and the “OLIG2/PDGFRa double positive OPCs” value was “present”. The “PDGFRα+ OPCs” value in test [3] (treated day 35 to 50, examined day 100) is listed as “appear”.

With “EGF: mitogen used as a control for FGF2 (Sigma)”, the “proportion of Olig2 positive cells” value in test [4] (EGF 10 ng/ml, day 24 to 35) is on record as “did not increase”. Moreover, in test [4], the HB9 expression entry is given as “moderately decreases”. Besides, the “proportion of Ki67 positive cells” value in test [5] is given as “does not selectively alter; also recorded: did not increase”. In addition, in test [3], the “timing of OPC differentiation (PDGFRα, NG2, Sox10)” value is listed as “did not speed up the differentiation of OPCs”.

In the case of FGF2: Fibroblast Growth Factor 2 (R&D), the Nkx2.2 progenitors entry in test [1] (FGF2 continued from day 35, 7th week) is given as “did not appear to change significantly”. Further, the “Olig2/Nkx2.2 double positive cells” value in test [1] (FGF2 continued from day 35, examined day 50 (7th week)) is reported as “decreased; also recorded: few double positive cells”. Further, the “population of Olig2 cells” value in test [4] (FGF2 10 ng/ml with purmorphamine from day 24, day 35) worked out at 55%. The “HB9+ motor neurons or Olig2-expressing progenitors” value in test [4] (FGF2 alone, without SHH or purmorphamine) is listed as “few, if any”. Further, the HB9-expressing cells result in test [4] (FGF2 removed at day 35 and RA added back, one to two weeks later) is “hardly any”. For the same molecule, in test [4], the HB9 expression result is given as “blocks HB9 expression; also recorded: nearly completely blocked HB9 expression” and the “cells expressing HB9” value is reported as “less than 5%”. Moreover, the “increase of OLIG2+ cells” value in test [4] (with presence of Pur, 12 days from day 24) is given as “about 50%”. In test [6], the “GFAP+ astrocytes” value was 35%, the “PDGFRa+ OPCs” value was found to be 4% and the “βIII tubulin+ neurons” value worked out at 53%. The “decrease in the OLIG2+ population (FACS)” value in test [7] amounted to 10%. Moreover, the “proportion of Ki67 positive cells” value in test [5] is given as “does not selectively alter”. Also, the “Ngn2 and HB9 expression (RT-PCR)” value in test [8] (FGF2 10 ng/ml with purmorphamine, day 24 to 35) is recorded as “repressed”. Further, in test [8] (FGF2 from day 35), the “expression of NFIA (RT-PCR)” value was “promoted the expression of NFIA”. For the same molecule, in test [8] (FGF2 from day 35 in presence of purmorphamine), the “expression of Olig2 (RT-PCR)” value is given as “compromises the effect of purmorphamine to maintain expression of Olig2”. In test [8] (day 50, FGF2 from day 35), the “SHH transcript (quantitative RT-PCR)” value is “decreases SHH by half”; the “transcription of GLI2 and GLI3 (quantitative RT-PCR)” value is on record as “increases”. Besides, the total cells generated result in test [3] (FGF2 with purmorphamine days 24-35 versus purmorphamine alone) is reported as “substantially more total cells”. In test [3], the “timing of OPC differentiation (PDGFRα, NG2, Sox10)” value is “did not speed up the differentiation of OPCs” and the “PDGFRα+ OPCs (in words)” value is “similar”.

As for sonic hedgehog [SHH], in test [1], the “cells expressing Olig2 and/or Nkx2.2” value was “co-express; also recorded: sustained Olig2 progenitor population”. In addition, the “onset of Olig2 expression” value in test [2] (one week following SHH treatment) is ~23 day of differentiation. Further, the Olig2-expressing progenitors result in test [2] is on record as “present”. In test [3], the “timing of OPC differentiation (PDGFRα, NG2, Sox10)” value is “did not speed up the differentiation of OPCs” and the “OLIG2/PDGFRa double positive OPCs” value was “present”.

B1: Noggin: a BMP antagonist known to promote OPC differentiation (protein, UniProt Q13253 28-232, looked up)
Noggin: QHYLHIRPAPSDNLPLVDLIEHPDPIFDPKEKDLNETLLRSLLGGHYDPGFMATSPPEDRPGGGGGAAGGAEDLAELDQLLRQRPSGAMPSEIKGLEFSEGLAQGKKQRLSKKLRRKLQMWLWSQTFCPVLYAWNDLGSRFWPRYVKVGSCFSKRSCSVPEGMVCKPSKSVHLTVLRWRCQRRGGQRCGWIPIQYPIISECKCSC
As to B1, the “timing of OPC differentiation” value in test [3] (Noggin 100 ng/ml at day 35 together with SHH 100 ng/ml) is reported as “did not result in earlier differentiation of OPCs”.
